Assay results published in PubChem BioAssay (NCI).
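Growth conditions: 96-well plates. Treatment: test compound, 48 hours, 5 concentrations. Analysis: linear interpolation between bracketing concentrations; unreached endpoints set to highest concentration. GI50 = concentration required for 50% inhibition of growth. Definition used: TGI = concentration required for complete inhibition of growth.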

Assays:
Assay in all cases: inhibition of tumour cell growth, NCI panel, 48 h
[1] = system: SK-OV-3 ovarian
[2] = system: DMS 114 small cell lung
[3] = system: UO-31 renal
[4] = system: KM12 colon
[5] = system: OVCAR-5 ovarian
[6] = system: LXFL 529 NSCLC
[7] = system: HCC-2998 colon
[8] = system: CCRF-CEM leukemia
[9] = system: OVCAR-3 ovarian
[10] = system: EKVX NSCLC

Compound	TGI [1] [µM]	TGI [2] [µM]	TGI [3] [µM]	TGI [4] [µM]	TGI [5] [µM]	TGI [6] [µM]	TGI [7] [µM]	TGI [8] [µM]	TGI [9] [µM]	GI50 [1] [µM]	GI50 [3] [µM]	GI50 [4] [µM]	GI50 [10] [µM]	TGI [10] [µM]	GI50 [5] [µM]	GI50 [7] [µM]	GI50 [8] [µM]	GI50 [9] [µM]	GI50 [6] [µM]
Cc1nc(C(=O)O)c2ccccc2n1	> 100	> 100	> 100	> 100	> 100	> 100	> 100	> 100	> 100										
c1ccc2cc(-c3n(Cc4ccc5ccccc5n4)c4ccccc4[n+]3Cc3ccc4ccccc4n3)ccc2c1	0.912		2.66	1.21	1.47		1.46	1.67	1.39	0.268	1.34	0.321	0.517	2.08	0.368	0.344	0.333	0.314	
NS(=O)(=O)c1ccc(-c2cc3ccncc3cc2OCc2ccccc2)cc1	> 19.3		> 25	> 25	> 25		> 25	> 25	> 25	11.1	14.5	> 20.2	> 22.9	> 25	> 25	> 25	> 17.7	12.1	
Oc1ccc(C(c2ccc(O)cc2)c2ccc(Br)cn2)cc1	65.4		40.7	18.9	> 71		2.98	> 100	0.411	12.5	6.14	0.454	0.358	3.85	13.7	0.322	14.7	0.0963	
Cc1cc[n+]2c(c1)-c1cc(C)cc[n+]1CC2	> 100		> 100	> 100	> 100		> 100	> 100	> 100					> 100					
OC(C#Cc1ccccc1)(c1ccccc1)c1ccccc1	> 100		> 100	78.4	> 100		> 100	35.3	85.3					82.4					
Cc1ccc(S(=O)(=O)N/N=C(/CC(=O)c2c(C)n([O-])c3ccccc3[n+]2=O)C(=O)Nc2ccccc2C)cc1	> 100	> 100	> 100	> 100	> 100	> 100	> 100		> 100					> 100					
CC(=O)NCc1cccc(C#Cc2cncnc2Nc2ccc(OCc3cccc(F)c3)c(Cl)c2)c1	> 25		> 21.1	> 25	> 25		> 25	> 25	> 25	> 12.9	3.25	11.1	1.46	> 14.8	9.13	9.04	13.4	11.6	
CCCCCCNC(=O)Oc1ccc(/C(=C(\C)c2ccc(Cl)cc2)c2ccc(OCCN3CCCCC3)cc2)cc1	13.6		6.57	10.4	16		9.17	33.3	9.42	5.42	2.14	3.53	5.04	14.4	5.03	4.39	3.2	4.39	
Cc1cc(C#Cc2ccc(C(C)(C)C)cc2)ccc1-n1c(/C=C/c2ccc(O)cc2O)nc2ccccc2c1=O	30.6		15.5	10.8	16.4		3.85	> 100	12.5	10.9	2.63	3.33	3.67	16.2	4.25	1.93	3.85	3.23	
N#Cc1ccc(C=NC23CC4CC(CC(C4)C2)C3)cc1	> 100	> 100	> 100	> 100	> 100		> 100	> 100	> 100					> 100					
O=C(CC1SC(=Nc2ccccc2Cl)NC1=O)Nc1ccc(Cl)cc1Cl (stereo not drawn)		> 100	> 100	> 100	> 100	> 100	> 100	> 100	> 100					> 100					
COC(=O)c1cncc(/C=C/c2c(C)cc(O)cc2C)c1	24.8		> 25	24.6	> 25		> 25	> 25	> 21.1	8.01	14.5	7.76	> 17.3	> 25	> 24.1	13.3	6.77	10.1	
COc1cc(/C=C/C(=O)c2cccc(-n3cc(-c4ccc(Cl)cc4)[nH]c3=O)c2)cc(OC)c1OC	> 100		21.3	18.6	10.2		7.36	> 100	6.02	31.4	7.03	5.45	23.9	> 100	3.11	2.46	5.43	2.48	
CCC1(O)C(=O)OCc2c1cc1n(c2=O)Cc2cc3c(NC(=O)CN)cccc3nc2-1 (stereo not drawn)	31.3		4.82	44.7	63.9	> 75	25.6	1.43	22.3	0.377	0.595	1.87	19.7	> 88.2	3.27	5.07	0.0208	3.3	5.3
C/C(=C\c1cnc(C)s1)[C@@H]1C[C@@H]2O[C@@H]2CCC[C@H](C)[C@H](O)[C@@H](C)C(=O)C(C)(C)[C@@H](O)CC(=O)O1	> 100		> 100	> 100	> 100		> 100	> 100	> 100	< 0.0125	< 0.0105	< 0.01	0.0127	> 100	< 0.01	0.0103	< 0.01	< 0.01	
COc1cc2nc(-c3cc(F)ccc3O)nc(N[C@@H]3CNC[C@H]3C(C)(C)O)c2cc1OC	4.72		3.21	3.18	3.67		3.47	7.3	3.62	2.29	1.56	1.73	1.44	3.02	1.5	1.92	2.29	1.9	

Compound	TGI [1] [µM]	TGI [2] [µM]	TGI [3] [µM]	TGI [4] [µM]	TGI [5] [µM]	TGI [6] [µM]	TGI [7] [µM]	TGI [8] [µM]	TGI [9] [µM]	GI50 [1] [µM]	GI50 [3] [µM]	GI50 [4] [µM]	GI50 [10] [µM]	TGI [10] [µM]	GI50 [5] [µM]	GI50 [7] [µM]	GI50 [8] [µM]	GI50 [9] [µM]	GI50 [6] [µM]
COC(=O)c1cc2c(cc1Cl)SC1=NN(C)C(N(C)C)N1S2(=O)=O (stereo not drawn)	> 100		> 100	> 100	> 100		> 100	> 100	> 100	> 100	> 100	> 100	> 100	> 100	> 100	> 100	> 100	> 100	
Cc1ccc(-c2nc([P+](c3ccccc3)(c3ccccc3)c3ccccc3)c(S(=O)(=O)c3ccc(C)cc3)o2)cc1	12.5		2.6	3.83	3.18		3.01	6.94	2.07	3.74	1.32	1.75	1.21	2.98	1.58	1.45	0.606	0.755	
O=S(=O)(c1cccc(N=C=S)c1)c1cccc(N=C=S)c1	37.3	29.6	75.1	61.5	> 100	28.5	46.7		24					> 100					
CCN(CC)CCCCCCNc1cc(OC)cc2cccnc12	33		29.5	10.5	22.7		5	4.97	3.4	17.7	11.5	3.15	13.4	26.3	6.74	2.32	2.39	1.74	
COc1ccc(-c2nc(/C=C3\SC(=NCc4ccccc4)NC3=O)c3ccccn23)cc1	4.28		3	2.3	2.45		4.83	> 100	2.46	2.05	1.49	0.846	2.41	> 25.5	1.5	1.68	2.83	1.04	
COC1=C(OC)C(=O)C(SC/C=C(\C)CCCC(C)CCCC(C)CCCC(C)C)=CC1=O (stereo not drawn)	> 91.6		> 27.2	> 87.9	> 89.7		> 100	> 100	> 100	2.47	1.24	0.934	1.11	> 37.7	0.564	2.37	1.19	0.857	
COC1C(N)C(OC2C(Oc3cccc4c(O)c5c(=O)oc6ccc(C)c7c(=O)oc(c34)c5c67)OC(C)C(O)C2(C)O)OC(C)C1O (stereo not drawn)		0.229	0.82	0.366	1.45	0.148	0.336	3.66	0.406					1.03					
c1ccc2c(c1)Nc1ccncc1S2	> 100		74	42.5	> 100		> 100	> 100	57	37	12.7	14.2	12.1	81.5	19	27.9	28.2	18.6	
O=C(CC1(O)C(=O)N(Cc2ccccc2)c2ccccc21)c1ccc(C(=O)NCC2CCC3(CC2)OOC2(CCCCC2)OO3)cc1 (stereo not drawn)	> 51.1		0.338	2.58	7.52		5.06	2.17	2.74	6.57	0.176	0.988	0.659	2.04	1.61	2.3	0.421	1.21	
COc1ccc(-c2cc(C(=O)Nc3ccc(C)c(C)c3)nc(NC#N)n2)cc1	> 100	> 100	> 100	> 100	> 100	> 100		> 100	> 100					> 100					
C[N+](C)(C)CC1CCCC1=O (stereo not drawn)	30.4	8.31	8.79	20.6	14.8	2.57	29.9		6.87					4.62					
CN(CCNCc1ccccn1)CCNCc1ccccn1	5.27		3.9	10.1	8.57		4.64	> 100	4.27	2.24	1.73	3.11	3.01	12.3	2.66	2.17	3.87	2.09	
Nc1nc(Nc2ccccc2SSc2ccccc2Nc2nc(N)nc(C(Cl)(Cl)Cl)n2)nc(C(Cl)(Cl)Cl)n1	91.3		3	28.9	18.7		> 100	14	33.8	26.4	1.56	4.05	5.8	20.4	4.75	30.1	3.23	10.4	
OCCNC1c2cc(Cl)ccc2-c2c(Cl)cc(Cl)cc21 (stereo not drawn)	> 100		> 100	> 100	> 100		> 100	47.4	80					> 100					
CC1OC(OC2C(O)CC(OC3C(O)CC(OC4CCC5(C)C(CCC6C5CC(O)C5(C)C(C7=CC(=O)OC7)CCC65O)C4)OC3C)OC2C)CC(O)C1O (stereo not drawn)	0.171		0.148	0.28	0.295		0.451	0.245	0.113	0.0513	0.0377	0.0824	0.0351	0.121	0.137	0.146	0.0358	0.033	
Cc1cc(C)nc(NS(=O)(=O)c2ccc(Nc3c4ccccc4nc4c(C(=O)Nc5ccc(S(=O)(=O)N=C(N)N)cc5)cccc34)cc2)n1	> 100	> 100	> 100	> 100	> 100		> 100	> 100	> 100					> 100					
